This is an account of results in patent US10654847B2, “Substituted 2-(4-heterocyclylbenzyl)isoindolin-1-one analogs as positive allosteric modulators of the muscarinic acetylcholine receptor M1” (Vanderbilt University, priority 2011, dated 2020).

The target in the test is T1, mAChR M1 (UniProt P11229).
T1 sequence (P11229 1-460): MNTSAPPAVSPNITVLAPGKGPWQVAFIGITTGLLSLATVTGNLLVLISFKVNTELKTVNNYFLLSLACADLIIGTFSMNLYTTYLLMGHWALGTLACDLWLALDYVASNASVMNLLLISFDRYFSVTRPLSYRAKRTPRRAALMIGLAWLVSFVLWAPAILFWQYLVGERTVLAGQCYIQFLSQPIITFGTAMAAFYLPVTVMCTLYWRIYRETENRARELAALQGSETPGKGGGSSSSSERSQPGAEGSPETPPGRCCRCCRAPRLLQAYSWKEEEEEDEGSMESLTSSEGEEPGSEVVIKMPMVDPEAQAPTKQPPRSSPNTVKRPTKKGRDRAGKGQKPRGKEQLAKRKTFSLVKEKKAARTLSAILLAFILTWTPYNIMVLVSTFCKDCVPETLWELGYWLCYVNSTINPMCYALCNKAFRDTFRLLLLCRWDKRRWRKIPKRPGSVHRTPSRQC
The test is described as follows: mAChR M1 cell-based functional assay (calcium mobilization, potentiation of EC20 acetylcholine response). Conditions: for Emax (%): % ACh maximum at 30 μM, mAChR M1-expressing CHO-K1 cells, calcium flux; for pEC50 / EC50: positive allosteric modulation of EC20 ACh response, mAChR M1 CHO-K1 cells; for pEC50: <5 estimated where no plateau; for EC50: >10 μM estimated where no plateau, read-out: EC50. Here is the method: Chinese hamster ovary (CHO-K1) cells stably expressing rat (r)M1 were purchased from the American Type Culture Collection and cultured according to their indicated protocol. […] To make stable rM2, hM2, rM3, hM4, and rM4 cell lines for use in calcium mobilization assays, these cells also were stably transfected with a chimeric G-protein (Gqi5) (provided by B. R. Conklin, University of California, San Francisco) using Lipofectamine 2000. rM1, hM1, rM3, hM3, rM5, and hM5 cells were grown in Ham's F-12 medium containing 10% heat-inactivated fetal bovine serum (FBS), 20 mM HEPES, and 50 μg/mL G418 sulfate. rM2-Gqi5, hM2-Gqi5, and hM4-Gqi5 cells were grown in the same medium also containing 500 μg/mL Hygromycin B. Stable rM4-Gqi5 cells were grown in DMEM containing 10% heat-inactivated FBS, 20 mM HEPES, 400 μg/mL G418 sulfate, and 500 μg/mL Hygromycin B.
For high throughput measurement of agonist-evoked increases in intracellular calcium, CHO-K1 cells stably expressing muscarinic receptors were plated in growth medium lacking G418 and hygromycin at 15,000 cells/20 μL/well in Greiner 384-well black-walled, tissue culture (TC)-treated, clear-bottom plates (VWR). Cells were incubated overnight at 37° C. and 5% CO2. […] Compound master plates were formatted in an 11 point CRC format (1:3 dilutions) in 100% DMSO with a starting concentration of 10 mM using the BRAVO liquid handler (Agilent). Test compound CRCs were then transferred to daughter plates (240 nL) using the Echo acoustic plate reformatter (Labcyte, Sunnyvale, Calif.) and then diluted into assay buffer (40 μL) to a 2× stock using a Thermo Fisher Combi (Thermo Fisher Scientific, Waltham, Mass.).
Calcium flux was measured using the Functional Drug Screening System (FDSS) 6000 (Hamamatsu Corporation, Tokyo, Japan) as an increase in the fluorescent static ratio. Compounds were applied to cells (20 μL, 2×) using the automated system of the FDSS 6000 at 4 s into the 300 s protocol and the data were collected at 1 Hz. […] Agonist activity was analyzed as a concentration-dependent increase in calcium mobilization upon compound addition. Positive allosteric modulator activity was analyzed as a concentration-dependent increase in the EC20 acetylcholine response. Antagonist activity was analyzed as a concentration-dependent decrease in the EC80 acetylcholine response. Concentration-response curves were generated using a four-parameter logistical equation in XLfit curve fitting software (IDBS, Bridgewater, N.J.) for Excel (Microsoft, Redmond, Wash.) or Prism (GraphPad Software, Inc., San Diego, Calif.).
The above described assay was also operated in a second mode where an appropriate fixed concentration of the present compounds were added to the cells after establishment of a fluorescence baseline for about 3 seconds, and the response in cells was measured. […] Data were reduced as described above and the EC50 values for the agonist in the presence of test compound were determined by nonlinear curve fitting. A decrease in the EC50 value of the agonist with increasing concentrations of the present compounds (a leftward shift of the agonist concentration-response curve) is an indication of the degree of muscarinic positive allosteric modulation at a given concentration of the present compound. An increase in the EC50 value of the agonist with increasing concentrations of the present compounds (a rightward shift of the agonist concentration response curve) is an indication of the degree of muscarinic antagonism at a given concentration of the present compound. The second mode also indicates whether the present compounds also affect the maximum response of the muscarinic receptor to agonists.
The calcium mobilization assay was also used to determine “efficacy”.

In the case of `O=C1c2ncccc2CN1Cc1ccc(-c2cnc3ccccc3c2)cc1F` [Example B66], the “Emax (%)” value is on record as 52%, the pEC50 is on record as 5.84 and the EC50 is 1440 nM.
For the molecule `Cn1ncc2ccc(-c3ccc(CN4Cc5cccnc5C4=O)c(F)c3)cc21` [Example B60], the “Emax (%)” value is recorded as 76%, the negative-log EC50 (pEC50) was 5.80 and the EC50 was 1590 nM.
The like results for `Cn1cc2c(-c3ccc(CN4Cc5cccnc5C4=O)c(F)c3)cccc2n1` [Example B62] were, in that order, 72%, 6.07 and 851 nM.
The like results for `O=C1c2ncccc2CN1Cc1ccc(-c2cccnc2)cc1Cl` [Example B67] were, in that order, 56%, 5.28 and 5250 nM.
The like results for `Cc1cc(-c2ccc(CN3Cc4cccnc4C3=O)c(Cl)c2)cnc1Cl` [Example B75] were, in that order, 42%, 5.70 and 2000 nM.
As to `Cc1cc(-c2cccnc2)ccc1CN1Cc2cccnc2C1=O` [Example B85], the “Emax (%)” value was found to be 41%, the negative logarithm of the EC50 (pEC50) is less than 5.00 and the 50% effective concentration (EC50) was greater than 10000 nM.
The like results for `O=C1c2cccnc2CN1Cc1ccc(-c2ccc3ccncc3c2)cc1F` [Example B49] were, in that order, 68%, 5.81 and 1550 nM.
As for `Cn1cc2c(-c3cc(F)c(CN4Cc5ncccc5C4=O)c(F)c3)cccc2n1` [Example B81], the “Emax (%)” value came to 80%, the pEC50 was 6.80 and the half-maximal effective concentration (EC50) was 158 nM.
On the same counts, the results for `Cn1cc2c(-c3ccc(CN4Cc5ncccc5C4=O)c(F)c3)cccc2n1` [Example B32] are 74%, 6.07 and 851 nM.
On the same counts, the results for `Cn1cnc2ccc(-c3ccc(CN4Cc5ncccc5C4=O)c(F)c3)cc21` [Example B54] are 81%, 6.13 and 741 nM.
On the same counts, the results for `O=C1c2ccccc2CN1Cc1ccc(-c2ccc3cc[nH]c3c2)cc1F` [Example B121] are less than 30%, less than 5.00 and greater than 10000 nM.
For the molecule `Cn1cc2c(-c3cc(F)c(CN4Cc5ncccc5C4=O)cc3F)cccc2n1` [Example B87], the “Emax (%)” value is listed as 68%, the negative-log EC50 (pEC50) is 5.22 and the EC50 was 6030 nM.
Turning to `COc1ccc(-c2ccc(CN3Cc4ncccc4C3=O)c(F)c2)cc1` [Example B50], the “Emax (%)” value is 34%, the negative logarithm of the EC50 (pEC50) is 6.01 and the EC50 was 977 nM.
The like results for `Cc1n[nH]c2cc(-c3cc(F)c(CN4Cc5ncccc5C4=O)c(F)c3)ccc12` [Example B98] were, in that order, 49%, 6.68 and 209 nM.
The like results for `Cn1ncc2cc(-c3ccc(CN4Cc5ccccc5C4=O)c(F)c3)ccc21` [Example B114] were, in that order, less than 30%, less than 5.00 and greater than 10000 nM.
The like results for `Cc1cc(-c2ccc(CN3Cc4ncccc4C3=O)c(F)c2)cnc1F` [Example B34] were, in that order, 37%, 5.60 and 2510 nM.
Consider `O=C1c2ncccc2CN1Cc1ccc(-c2ccncc2)cc1F` [Example B65], for which the “Emax (%)” value was 56%, the negative-log EC50 (pEC50) was less than 5.00 and the half-maximal effective concentration (EC50) is greater than 10000 nM.
For `Cn1cc(-c2ccc(CN3Cc4ccccc4C3=O)cn2)cn1` [Example B17], the “Emax (%)” value is reported as 40%, the negative-log EC50 (pEC50) is on record as less than 5.00 and the EC50 was greater than 10000 nM.
The like results for `COc1ccc(-c2ccc(CN3Cc4cccnc4C3=O)c(Cl)c2)cc1` [Example B76] were, in that order, 35%, 5.83 and 1480 nM.
The like results for `O=C1c2cccnc2CN1Cc1ccc(-c2ccncc2)cc1F` [Example B41] were, in that order, 70%, 5.33 and 4680 nM.
On the same counts, the results for `O=S1(=O)c2ccccc2CN1Cc1ccc(-c2coc(-c3ccccc3)n2)cc1` [Example B120] are less than 30%, less than 5.00 and greater than 10000 nM.
On to `O=C1c2cccnc2CN1Cc1c(F)cc(-c2cnc3ccccn23)cc1F` [Example B88], for which the “Emax (%)” value was 63%, the negative-log EC50 (pEC50) is less than 5.00 and the EC50 is greater than 10000 nM.
On the same counts, the results for `CN(C)c1ccc(-c2ccc(CN3Cc4ncccc4C3=O)c(F)c2)cc1` [Example B52] are 53%, less than 5.00 and greater than 10000 nM.
The like results for `Cn1cc2ccc(-c3ccc(CN4Cc5cccnc5C4=O)c(F)c3)cc2n1` [Example B72] were, in that order, 79%, 5.70 and 2000 nM.
On the same counts, the results for `Cn1cc2c(-c3cccc(CN4Cc5ncccc5C4=O)c3F)cccc2n1` [Example B109] are 36%, 5.14 and 7240 nM.
In the case of `Cn1ncc2cc(-c3ccc(CN4Cc5cccnc5C4=O)c(F)c3)ccc21` [Example B61], the “Emax (%)” value worked out at 38%, the negative logarithm of the EC50 (pEC50) is less than 5.00 and the EC50 was greater than 10000 nM.
On the same counts, the results for `O=C1c2ncccc2CN1Cc1ccc(-c2cccnc2)cc1F` [Example B64] are 50%, less than 5.00 and greater than 10000 nM.
The like results for `O=C1c2cccnc2CN1Cc1c(F)cc(-c2ccc3c(c2)C2(OCCO2)C(=O)N3)cc1F` [Example B101] were, in that order, 48%, less than 5.00 and greater than 10000 nM.
On the same counts, the results for `O=C1c2cccnc2CN1Cc1ccc(-c2ccc3ncccc3c2)cc1F` [Example B48] are 65%, 6.08 and 832 nM.
Turning to `CN1Cc2ccc(-c3cc(F)c(CN4Cc5ncccc5C4=O)c(F)c3)cc2C1` [Example B107], the “Emax (%)” value is listed as 56%, the negative-log EC50 (pEC50) is listed as 5.76 and the concentration for a half-maximal effect (EC50) is 1740 nM.
The like results for `Cn1cc2cc(-c3ccc(CN4Cc5ncncc5C4=O)c(F)c3)ccc2n1` [Example B56] were, in that order, 80%, 6.40 and 398 nM.
The like results for `O=C1c2cccnc2CN1Cc1ccc(-c2ccc3[nH]ncc3c2)cc1F` [Example B36] were, in that order, 58%, 6.28 and 525 nM.
The like results for `O=C1c2ccccc2CN1Cc1ccc(-c2c[nH]nc2C(F)(F)F)cc1F` [Example B16] were, in that order, 38%, less than 5.00 and greater than 10000 nM.
